Reference: patent US20110086759A1, “CHEMICAL COMPOUNDS” (SYNGENTA CROP PROTECTION, INC., priority 2007, published 2011)

Columns and labels:
Format in all cases: in vivo
[1] = test system: Alopecurus myosuroides (ALOMY); assay: Post-emergence biological efficacy, glasshouse pot test; details: 312 h
Method: (§1) Seeds of Alopecurus myosuroides (ALOMY), Setaria faberi (SETFA), Echinochloa crus-galli (ECHCG), Solanum nigrum (SOLNI), Amaranthus retoflexus (AMARE) and Ipomea hederaceae (IPOHE) were sown in standard soil in pots. After cultivation for 8 days under controlled conditions in a glasshouse (at 24/16° C., day/night; 14 hours light; 65% humidity), the plants were sprayed with an aqueous spray solution derived from the formulation of the technical active ingredient in acetone/water (50:50) solution containing 0.5% Tween 20 (polyoxyethelyene sorbitan monolaurate, CAS RN 9005-64-5) to give a final dose of 1000 or 250 g/ha of test compound.
(§2) The test plants were then grown on under controlled conditions in a glasshouse (at 24/16° C., day/night; 14 hours light; 65% humidity) and watered twice daily. After 13 days the test was evaluated (100=total damage to plant; 0=no damage to plant).

[2] = test system: Echinochloa crus-galli (ECHCG); assay: as above; details: 312 h
Method: as §1, §2

[3] = test system: Amaranthus retoflexus (AMARE); assay: as above; details: Amaranthus retroflexus, 312 h
Method: as §1, §2

Setaria faberi (SETFA) [4] = assay: as above; details: 312 h
Method: as §1, §2

Solanum nigrum (SOLNI) [5] = assay: as above; details: 312 h
Method: as §1, §2

[6] = test system: Ipomea hederaceae (IPOHE); assay: as above; details: Ipomoea hederacea, 312 h
Method: as §1, §2

[7] = test system: Alopecurus myosuroides (ALOMY); assay: Pre-emergence biological efficacy, glasshouse pot test; details: 312 h
Method: as §1, with “one day” for “8 days”
(§3) The test plants were then grown under controlled conditions in the glasshouse (at 24/16° C., day/night; 14 hours light; 65% humidity) and watered twice daily. After 13 days the test was evaluated (100=total damage to plant; 0=no damage to plant).

[8] = test system: Echinochloa crus-galli (ECHCG); assay: as above; details: 312 h
Method: as §1, with “one day” for “8 days”
as §3

[9] = test system: Amaranthus retoflexus (AMARE); assay: as above; details: Amaranthus retroflexus, 312 h
Method: as §1, with “one day” for “8 days”
as §3

Setaria faberi (SETFA) [10] = assay: as above; details: 312 h
Method: as §1, with “one day” for “8 days”
as §3

Solanum nigrum (SOLNI) [11] = assay: as above; details: 312 h
Method: as §1, with “one day” for “8 days”
as §3

[12] = test system: Ipomea hederaceae (IPOHE); assay: as above; details: Ipomoea hederacea, 312 h
Method: as §1, with “one day” for “8 days”
as §3

[13] = post-emergence, 1,000 g/ha, evaluated after 13 days (100=total damage; 0=no damage), read-out: Percentage damage caused to weed species, ALOMY
[14] = post-emergence, 1,000 g/ha, evaluated after 13 days (100=total damage; 0=no damage), read-out: Percentage damage caused to weed species, ECHCG
[15] = post-emergence, 1,000 g/ha, evaluated after 13 days (100=total damage; 0=no damage), read-out: Percentage damage caused to weed species, AMARE
[16] = post-emergence, 1,000 g/ha, evaluated after 13 days (100=total damage; 0=no damage), read-out: Percentage damage caused to weed species, SETFA
[17] = post-emergence, 1,000 g/ha, evaluated after 13 days (100=total damage; 0=no damage), read-out: Percentage damage caused to weed species, SOLNI
[18] = post-emergence, 1,000 g/ha, evaluated after 13 days (100=total damage; 0=no damage), read-out: Percentage damage caused to weed species, IPOHE
[19] = pre-emergence, 1,000 g/ha, evaluated after 13 days (100=total damage; 0=no damage), read-out: Percentage damage ALOMY
[20] = pre-emergence, 1,000 g/ha, evaluated after 13 days (100=total damage; 0=no damage), read-out: Percentage damage ECHCG
[21] = pre-emergence, 1,000 g/ha, evaluated after 13 days (100=total damage; 0=no damage), read-out: Percentage damage AMARE
[22] = pre-emergence, 1,000 g/ha, evaluated after 13 days (100=total damage; 0=no damage), read-out: Percentage damage SETFA
[23] = pre-emergence, 1,000 g/ha, evaluated after 13 days (100=total damage; 0=no damage), read-out: Percentage damage SOLNI
[24] = pre-emergence, 1,000 g/ha, evaluated after 13 days (100=total damage; 0=no damage), read-out: Percentage damage IPOHE
[25] = Rate 1,000 g/ha, post-emergence spray, evaluated after 13 days (100=total damage to plant; 0=no damage to plant), read-out: Percentage damage caused to weed species, post-emergence, ALOMY
[26] = Rate 1,000 g/ha, post-emergence spray, evaluated after 13 days (100=total damage to plant; 0=no damage to plant), read-out: Percentage damage caused to weed species, post-emergence, ECHCG
[27] = Rate 1,000 g/ha, post-emergence spray, evaluated after 13 days (100=total damage to plant; 0=no damage to plant), read-out: Percentage damage caused to weed species, post-emergence, AMARE
[28] = Rate 1,000 g/ha, post-emergence spray, evaluated after 13 days (100=total damage to plant; 0=no damage to plant), read-out: Percentage damage caused to weed species, post-emergence, SETFA
[29] = Rate 1,000 g/ha, post-emergence spray, evaluated after 13 days (100=total damage to plant; 0=no damage to plant), read-out: Percentage damage caused to weed species, post-emergence, SOLNI
[30] = Rate 1,000 g/ha, post-emergence spray, evaluated after 13 days (100=total damage to plant; 0=no damage to plant), read-out: Percentage damage caused to weed species, post-emergence, IPOHE
[31] = pre-emergence, rate 1,000 g/ha, evaluated after 13 days (100=total damage to plant; 0=no damage), read-out: Percentage damage caused to weed species, ALOMY
[32] = pre-emergence, rate 1,000 g/ha, evaluated after 13 days (100=total damage to plant; 0=no damage), read-out: Percentage damage caused to weed species, ECHCG
[33] = pre-emergence, rate 1,000 g/ha, evaluated after 13 days (100=total damage to plant; 0=no damage), read-out: Percentage damage caused to weed species, AMARE
[34] = pre-emergence, rate 1,000 g/ha, evaluated after 13 days (100=total damage to plant; 0=no damage), read-out: Percentage damage caused to weed species, SETFA
[35] = pre-emergence, rate 1,000 g/ha, evaluated after 13 days (100=total damage to plant; 0=no damage), read-out: Percentage damage caused to weed species, SOLNI
[36] = pre-emergence, rate 1,000 g/ha, evaluated after 13 days (100=total damage to plant; 0=no damage), read-out: Percentage damage caused to weed species, IPOHE

Compound	pest or weed control at 1000 g/ha [1, 13] [%]	pest or weed control at 1000 g/ha [2, 14] [%]	pest or weed control at 1000 g/ha [3, 15] [%]	pest or weed control at 1000 g/ha (Setaria faberi (SETFA) [4]; [16]) [%]	pest or weed control at 1000 g/ha (Solanum nigrum (SOLNI) [5]; [17]) [%]	pest or weed control at 1000 g/ha [6, 18] [%]	pest or weed control at 1000 g/ha [7, 19] [%]	pest or weed control at 1000 g/ha [8, 20] [%]	pest or weed control at 1000 g/ha [9, 21] [%]	pest or weed control at 1000 g/ha (Setaria faberi (SETFA) [10]; [22]) [%]	pest or weed control at 1000 g/ha (Solanum nigrum (SOLNI) [11]; [23]) [%]	pest or weed control at 1000 g/ha [12, 24] [%]	further results
COC(=O)c1nc(C2CC2)nc(N[C@@H](Cc2ccc(Cl)cc2)C(=O)OC)c1Cl [4-285 (S), 5-Chloro-4-[(1S)-2-(4-chlorophenyl)-1-methoxycarbonyl-ethylamino]-2-cyclopropyl-6-methoxycarbonyl-pyrimidine]	20	20	100	40	90	90	20	30	90	20	90	70	–
COC(=O)c1nc(C2CC2)nc(N[C@@H](Cc2cccc(C(F)(F)F)c2)C(=O)OC)c1Cl [4-286 (S), 5-Chloro-2-cyclopropyl-6-methoxycarbonyl-4-[(1S)-1-methoxy-carbonyl-2-(3-trifluoromethyl-phenyl)-ethylamino]-pyrimidine]	10	10	100	20	80	50	10	20	90	20	80	100	–
COC(=O)c1nc(C2CC2)nc(N[C@@H](Cc2ccc(O)cc2)C(=O)OC)c1Cl [4-287 (S), 5-Chloro-2-cyclopropyl-4-[(1S)-2-(4-hydroxyphenyl)-1-methoxycarbonyl-ethylamino]-6-methoxycarbonyl-pyrimidine]	20	60	100	40	80	70	20	10	80	20	80	80	–
COC(=O)c1nc(C2CC2)nc(N[C@@H](Cc2ccc(OC(C)(C)C)cc2)C(=O)OC)c1Cl [4-288 (S), 4-[(1S)-2-(4-^tButoxyphenyl)-1-methoxycarbonyl-ethylamino]-5-chloro-2-cyclopropyl-6-methoxycarbonyl-pyrimidine]	10	0	80	10	80	50	0	0	80	0	40	60	–
CCOC(=O)[C@H](CSc1ccccc1)Nc1nc(C2CC2)nc(C(=O)OC)c1Cl [4-292 (R), 5-Chloro-2-cyclopropyl-4-[(1R)-1-ethoxycarbonyl-2-phenylthio-ethylamino]-6-methoxycarbonyl-pyrimidine]	20	30	100	50	70	60	20	20	100	10	80	100	–
COC(=O)c1nc(C2CC2)nc(N[C@@H](Cc2ccccc2)C(=O)OC(C)(C)C)c1Cl [4-293 (S), 4-[(1S)-1-^tButoxycarbonyl-2-phenyl-ethylamino]-5-chloro-2-cyclopropyl-6-methoxycarbonyl-pyrimidine]	–	–	–	–	–	–	–	–	–	–	–	–	pest or weed control at 1000 g/ha [1, 25]: 10%; pest or weed control at 1000 g/ha [2, 26]: 20%; pest or weed control at 1000 g/ha [3, 27]: 100%; pest or weed control at 1000 g/ha (Setaria faberi (SETFA) [4]; [28]): 40%; pest or weed control at 1000 g/ha (Solanum nigrum (SOLNI) [5]; [29]): 80%; pest or weed control at 1000 g/ha [6, 30]: 80%; pest or weed control at 1000 g/ha [7, 31]: 10%; pest or weed control at 1000 g/ha [8, 32]: 20%; pest or weed control at 1000 g/ha [9, 33]: 40%; pest or weed control at 1000 g/ha (Setaria faberi (SETFA) [10]; [34]): 0%; pest or weed control at 1000 g/ha (Solanum nigrum (SOLNI) [11]; [35]): 50%; pest or weed control at 1000 g/ha [12, 36]: 60%
COC(=O)c1nc(C2CC2)nc(N(C)[C@@H](Cc2ccccc2)C(=O)OC)c1Cl [5-283 (S), 5-Chloro-2-cyclopropyl-6-methoxycarbonyl-4-{N-[(1S)-1-methoxycarbonyl-2-phenyl-ethyl]-N-methyl-amino}-pyrimidine]	–	–	–	–	–	–	–	–	–	–	–	–	pest or weed control at 1000 g/ha [1, 25]: 10%; pest or weed control at 1000 g/ha [2, 26]: 10%; pest or weed control at 1000 g/ha [3, 27]: 100%; pest or weed control at 1000 g/ha (Setaria faberi (SETFA) [4]; [28]): 40%; pest or weed control at 1000 g/ha (Solanum nigrum (SOLNI) [5]; [29]): 70%; pest or weed control at 1000 g/ha [6, 30]: 50%; pest or weed control at 1000 g/ha [7, 31]: 0%; pest or weed control at 1000 g/ha [8, 32]: 0%; pest or weed control at 1000 g/ha [9, 33]: 80%; pest or weed control at 1000 g/ha (Setaria faberi (SETFA) [10]; [34]): 0%; pest or weed control at 1000 g/ha (Solanum nigrum (SOLNI) [11]; [35]): 40%; pest or weed control at 1000 g/ha [12, 36]: 30%
